Tests used:
[1] = test system: Tyrosine-protein kinase ABL1 (Homo sapiens), P00519 [M351T]; conditions: Compound concentration 1000.0 nM
[2] = target: Calcium/calmodulin-dependent protein kinase type II subunit delta (Homo sapiens) (UniProt Q13557); conditions: Compound concentration 1000.0 nM
[3] = target: Cyclin-dependent kinase 19 (Homo sapiens) (UniProt Q9BWU1); conditions: Compound concentration 1000.0 nM
[4] = target: Dual specificity protein kinase CLK4 (Homo sapiens) (UniProt Q9HAZ1); conditions: Compound concentration 1000.0 nM
[5] = target: T1, Ephrin type-B receptor 2 (Homo sapiens) (UniProt P29323); conditions: Compound concentration 1000.0 nM
T1 sequence (whole entry): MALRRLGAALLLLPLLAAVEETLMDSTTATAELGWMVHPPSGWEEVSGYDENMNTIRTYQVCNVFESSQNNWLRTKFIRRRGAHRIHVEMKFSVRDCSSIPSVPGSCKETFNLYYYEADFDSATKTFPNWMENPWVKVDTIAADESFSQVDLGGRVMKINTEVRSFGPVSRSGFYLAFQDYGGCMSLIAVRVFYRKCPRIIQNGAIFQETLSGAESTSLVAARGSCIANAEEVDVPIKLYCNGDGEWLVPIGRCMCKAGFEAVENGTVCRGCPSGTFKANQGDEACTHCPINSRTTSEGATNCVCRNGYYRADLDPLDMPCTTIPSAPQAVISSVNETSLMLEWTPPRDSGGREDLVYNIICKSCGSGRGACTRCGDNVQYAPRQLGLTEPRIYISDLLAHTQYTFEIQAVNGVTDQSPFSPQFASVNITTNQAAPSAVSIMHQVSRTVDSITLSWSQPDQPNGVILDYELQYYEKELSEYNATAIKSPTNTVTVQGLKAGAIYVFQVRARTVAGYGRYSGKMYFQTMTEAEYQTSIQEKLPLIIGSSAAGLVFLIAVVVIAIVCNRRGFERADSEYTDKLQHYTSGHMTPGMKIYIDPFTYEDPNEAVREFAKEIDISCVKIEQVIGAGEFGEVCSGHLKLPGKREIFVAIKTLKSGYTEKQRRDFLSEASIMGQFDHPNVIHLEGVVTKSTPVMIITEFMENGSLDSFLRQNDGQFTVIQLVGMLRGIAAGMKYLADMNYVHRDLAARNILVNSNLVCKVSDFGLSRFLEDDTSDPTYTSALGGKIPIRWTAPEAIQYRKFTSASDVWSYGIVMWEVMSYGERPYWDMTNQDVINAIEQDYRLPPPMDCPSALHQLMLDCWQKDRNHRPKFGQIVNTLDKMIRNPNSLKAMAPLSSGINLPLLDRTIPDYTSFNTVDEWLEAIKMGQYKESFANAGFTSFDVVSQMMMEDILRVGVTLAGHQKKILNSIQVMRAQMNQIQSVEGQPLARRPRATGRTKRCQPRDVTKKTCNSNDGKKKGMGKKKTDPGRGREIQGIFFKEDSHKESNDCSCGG

[6] = target: Focal adhesion kinase 1 (Homo sapiens) (UniProt Q05397); conditions: Compound concentration 1000.0 nM
[7] = target: Fibroblast growth factor receptor 2 (Homo sapiens) (UniProt P21802); conditions: Compound concentration 1000.0 nM
[8] = target: Cyclin-G-associated kinase (Homo sapiens) (UniProt O14976); conditions: Compound concentration 1000.0 nM
[9] = target: Serine/threonine-protein kinase 10 (Homo sapiens) (UniProt O94804); conditions: Compound concentration 1000.0 nM
[10] = target: T2, Mitogen-activated protein kinase kinase kinase 3 (Homo sapiens) (UniProt Q99759); conditions: Compound concentration 1000.0 nM
T2 sequence (whole entry): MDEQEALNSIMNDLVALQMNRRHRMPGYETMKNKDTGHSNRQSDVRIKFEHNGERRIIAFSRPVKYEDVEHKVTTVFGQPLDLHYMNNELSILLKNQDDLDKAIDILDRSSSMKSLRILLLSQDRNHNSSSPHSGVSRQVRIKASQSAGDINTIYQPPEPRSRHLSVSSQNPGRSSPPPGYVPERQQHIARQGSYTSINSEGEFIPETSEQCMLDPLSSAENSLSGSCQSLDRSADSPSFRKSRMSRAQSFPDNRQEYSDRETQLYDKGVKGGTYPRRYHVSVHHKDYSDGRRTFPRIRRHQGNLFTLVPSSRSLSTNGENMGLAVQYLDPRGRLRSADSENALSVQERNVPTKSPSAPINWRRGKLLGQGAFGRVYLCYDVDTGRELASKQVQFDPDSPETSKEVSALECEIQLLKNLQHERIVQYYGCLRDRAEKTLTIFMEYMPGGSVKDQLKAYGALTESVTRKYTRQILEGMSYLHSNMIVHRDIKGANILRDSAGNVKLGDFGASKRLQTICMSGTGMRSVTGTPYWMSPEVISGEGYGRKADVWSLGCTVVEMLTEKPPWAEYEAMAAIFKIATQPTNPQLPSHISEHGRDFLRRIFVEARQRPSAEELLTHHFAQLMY

[11] = target: Myosin light chain kinase family member 4 (Homo sapiens) (UniProt Q86YV6); conditions: Compound concentration 1000.0 nM
[12] = target: Serine/threonine-protein kinase Nek7 (Homo sapiens) (UniProt Q8TDX7); conditions: Compound concentration 1000.0 nM
[13] = test system: Phosphatidylinositol 4,5-bisphosphate 3-kinase catalytic subunit alpha isoform (Homo sapiens), P42336 [Q546K]; conditions: Compound concentration 1000.0 nM
[14] = target: Phosphatidylinositol 4-phosphate 5-kinase type-1 gamma (Homo sapiens) (UniProt O60331); conditions: Compound concentration 1000.0 nM
[15] = target: cAMP-dependent protein kinase catalytic subunit beta (Homo sapiens) (UniProt P22694); conditions: Compound concentration 1000.0 nM
[16] = target: T3, D(4) dopamine receptor (Homo sapiens) (UniProt P21917); conditions: Compound concentration 10.0 uM
T3 sequence (whole entry): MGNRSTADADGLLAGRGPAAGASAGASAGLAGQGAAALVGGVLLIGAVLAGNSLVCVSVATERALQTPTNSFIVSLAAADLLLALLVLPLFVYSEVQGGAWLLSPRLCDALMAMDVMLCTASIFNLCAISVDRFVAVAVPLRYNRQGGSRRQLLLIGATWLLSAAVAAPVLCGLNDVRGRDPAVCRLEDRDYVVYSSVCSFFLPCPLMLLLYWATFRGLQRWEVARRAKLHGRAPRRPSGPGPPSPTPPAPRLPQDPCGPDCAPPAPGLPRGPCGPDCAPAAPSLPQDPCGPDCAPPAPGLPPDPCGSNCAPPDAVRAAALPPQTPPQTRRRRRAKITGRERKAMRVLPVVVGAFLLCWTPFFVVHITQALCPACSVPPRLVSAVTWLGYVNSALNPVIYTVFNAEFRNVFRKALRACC

Sequence of Fibroblast growth factor receptor 2 (Homo sapiens) (P21802 22-821 limits assumed): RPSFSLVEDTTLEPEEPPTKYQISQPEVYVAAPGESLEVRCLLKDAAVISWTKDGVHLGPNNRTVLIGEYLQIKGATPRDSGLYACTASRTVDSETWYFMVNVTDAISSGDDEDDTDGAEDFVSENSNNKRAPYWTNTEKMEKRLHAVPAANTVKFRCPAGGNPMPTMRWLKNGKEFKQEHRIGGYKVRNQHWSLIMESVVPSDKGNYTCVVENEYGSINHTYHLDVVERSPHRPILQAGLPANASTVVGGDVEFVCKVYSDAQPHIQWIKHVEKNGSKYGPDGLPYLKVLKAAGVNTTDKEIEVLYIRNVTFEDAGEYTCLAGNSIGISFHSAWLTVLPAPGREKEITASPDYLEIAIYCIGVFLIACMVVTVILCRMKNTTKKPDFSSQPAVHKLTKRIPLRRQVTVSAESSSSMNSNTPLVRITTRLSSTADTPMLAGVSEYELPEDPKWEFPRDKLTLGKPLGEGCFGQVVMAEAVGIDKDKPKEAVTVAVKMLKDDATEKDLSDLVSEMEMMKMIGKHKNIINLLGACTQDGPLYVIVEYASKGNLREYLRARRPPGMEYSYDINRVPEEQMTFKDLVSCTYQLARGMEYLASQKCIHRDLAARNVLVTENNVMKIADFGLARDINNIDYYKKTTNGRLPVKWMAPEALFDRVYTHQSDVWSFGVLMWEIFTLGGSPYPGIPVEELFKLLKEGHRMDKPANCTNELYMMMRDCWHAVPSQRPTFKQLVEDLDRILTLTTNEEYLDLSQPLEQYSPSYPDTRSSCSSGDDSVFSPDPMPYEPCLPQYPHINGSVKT
Sequence of Myosin light chain kinase family member 4 (Homo sapiens) (Q86YV6 whole entry): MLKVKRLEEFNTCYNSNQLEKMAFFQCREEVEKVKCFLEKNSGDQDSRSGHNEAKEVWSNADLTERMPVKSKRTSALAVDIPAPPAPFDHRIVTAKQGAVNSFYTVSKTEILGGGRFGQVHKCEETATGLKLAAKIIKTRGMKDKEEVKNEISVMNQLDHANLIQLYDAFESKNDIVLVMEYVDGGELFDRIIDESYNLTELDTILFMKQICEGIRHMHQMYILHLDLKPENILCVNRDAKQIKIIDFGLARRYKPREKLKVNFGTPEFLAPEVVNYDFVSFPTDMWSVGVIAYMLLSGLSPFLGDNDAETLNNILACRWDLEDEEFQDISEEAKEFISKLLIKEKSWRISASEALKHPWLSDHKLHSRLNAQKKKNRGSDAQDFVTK
Sequence of Phosphatidylinositol 4-phosphate 5-kinase type-1 gamma (Homo sapiens) (O60331 whole entry): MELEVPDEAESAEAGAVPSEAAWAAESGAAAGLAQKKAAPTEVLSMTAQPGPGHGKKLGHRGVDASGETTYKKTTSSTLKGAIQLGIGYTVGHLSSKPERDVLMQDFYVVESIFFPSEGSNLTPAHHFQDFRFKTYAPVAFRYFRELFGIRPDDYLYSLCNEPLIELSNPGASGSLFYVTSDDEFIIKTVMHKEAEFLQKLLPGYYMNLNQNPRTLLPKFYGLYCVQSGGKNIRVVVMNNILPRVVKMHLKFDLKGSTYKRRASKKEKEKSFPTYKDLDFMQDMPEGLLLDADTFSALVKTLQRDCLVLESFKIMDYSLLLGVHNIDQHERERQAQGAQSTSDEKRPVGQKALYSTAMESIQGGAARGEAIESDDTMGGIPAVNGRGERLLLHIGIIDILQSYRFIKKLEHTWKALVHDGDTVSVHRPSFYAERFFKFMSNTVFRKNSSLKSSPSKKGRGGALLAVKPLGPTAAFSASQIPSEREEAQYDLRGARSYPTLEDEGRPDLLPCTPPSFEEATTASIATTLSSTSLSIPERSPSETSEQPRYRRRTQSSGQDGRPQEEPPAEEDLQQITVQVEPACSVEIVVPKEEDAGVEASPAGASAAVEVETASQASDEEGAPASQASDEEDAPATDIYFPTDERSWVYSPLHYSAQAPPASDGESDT
Sequence of Cyclin-G-associated kinase (Homo sapiens) (O14976 whole entry): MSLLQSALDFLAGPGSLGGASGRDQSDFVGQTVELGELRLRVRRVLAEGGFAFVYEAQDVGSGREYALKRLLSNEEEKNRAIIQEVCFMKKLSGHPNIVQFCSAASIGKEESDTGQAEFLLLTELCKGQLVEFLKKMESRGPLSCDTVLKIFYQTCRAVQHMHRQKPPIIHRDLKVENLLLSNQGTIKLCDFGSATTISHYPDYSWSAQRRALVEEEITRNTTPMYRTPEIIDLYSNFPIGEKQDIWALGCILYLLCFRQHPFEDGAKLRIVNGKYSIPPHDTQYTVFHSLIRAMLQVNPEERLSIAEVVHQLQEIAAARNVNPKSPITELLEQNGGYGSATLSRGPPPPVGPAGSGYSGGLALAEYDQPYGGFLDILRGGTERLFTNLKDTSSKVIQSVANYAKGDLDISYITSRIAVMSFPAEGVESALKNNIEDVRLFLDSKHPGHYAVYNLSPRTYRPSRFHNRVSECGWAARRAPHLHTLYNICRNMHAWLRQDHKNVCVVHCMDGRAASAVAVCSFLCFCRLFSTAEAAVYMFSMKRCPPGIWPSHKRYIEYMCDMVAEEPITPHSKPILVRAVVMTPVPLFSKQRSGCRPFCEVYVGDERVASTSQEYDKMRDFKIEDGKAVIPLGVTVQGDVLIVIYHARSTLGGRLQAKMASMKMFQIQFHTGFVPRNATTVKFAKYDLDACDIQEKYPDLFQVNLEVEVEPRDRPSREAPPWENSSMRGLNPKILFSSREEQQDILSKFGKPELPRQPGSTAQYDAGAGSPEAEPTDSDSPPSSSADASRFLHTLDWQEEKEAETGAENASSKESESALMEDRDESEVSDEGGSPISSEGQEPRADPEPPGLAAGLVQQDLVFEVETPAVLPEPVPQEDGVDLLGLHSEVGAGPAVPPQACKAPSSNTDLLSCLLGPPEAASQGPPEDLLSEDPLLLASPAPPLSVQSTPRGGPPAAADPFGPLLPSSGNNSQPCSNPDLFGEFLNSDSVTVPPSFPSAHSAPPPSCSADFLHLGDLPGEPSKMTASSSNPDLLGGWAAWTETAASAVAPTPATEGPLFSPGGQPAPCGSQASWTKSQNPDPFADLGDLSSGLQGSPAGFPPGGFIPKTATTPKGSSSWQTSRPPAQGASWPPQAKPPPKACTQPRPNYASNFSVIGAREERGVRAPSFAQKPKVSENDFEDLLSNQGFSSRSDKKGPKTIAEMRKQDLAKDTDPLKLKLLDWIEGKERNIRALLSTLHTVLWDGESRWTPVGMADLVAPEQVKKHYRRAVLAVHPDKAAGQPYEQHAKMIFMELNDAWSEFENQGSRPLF
Sequence of Dual specificity protein kinase CLK4 (Homo sapiens) (Q9HAZ1 whole entry, looked up): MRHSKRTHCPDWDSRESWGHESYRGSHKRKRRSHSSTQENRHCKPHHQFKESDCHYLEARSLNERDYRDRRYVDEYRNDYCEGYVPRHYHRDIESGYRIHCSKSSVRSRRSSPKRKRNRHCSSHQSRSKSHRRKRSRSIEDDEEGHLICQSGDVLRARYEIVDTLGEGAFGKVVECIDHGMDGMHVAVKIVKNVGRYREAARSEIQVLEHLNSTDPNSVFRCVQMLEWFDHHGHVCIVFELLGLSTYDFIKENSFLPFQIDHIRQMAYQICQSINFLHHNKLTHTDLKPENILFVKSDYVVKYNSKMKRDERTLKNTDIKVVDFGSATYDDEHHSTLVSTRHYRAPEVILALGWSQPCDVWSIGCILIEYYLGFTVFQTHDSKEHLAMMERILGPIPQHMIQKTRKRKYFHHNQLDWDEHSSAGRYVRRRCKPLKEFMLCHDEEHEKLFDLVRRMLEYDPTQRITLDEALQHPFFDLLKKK
Sequence of Phosphatidylinositol 4,5-bisphosphate 3-kinase catalytic subunit alpha isoform (Homo sapiens), P42336 [Q546K] (P42336 whole entry Q546K, canonical isoform): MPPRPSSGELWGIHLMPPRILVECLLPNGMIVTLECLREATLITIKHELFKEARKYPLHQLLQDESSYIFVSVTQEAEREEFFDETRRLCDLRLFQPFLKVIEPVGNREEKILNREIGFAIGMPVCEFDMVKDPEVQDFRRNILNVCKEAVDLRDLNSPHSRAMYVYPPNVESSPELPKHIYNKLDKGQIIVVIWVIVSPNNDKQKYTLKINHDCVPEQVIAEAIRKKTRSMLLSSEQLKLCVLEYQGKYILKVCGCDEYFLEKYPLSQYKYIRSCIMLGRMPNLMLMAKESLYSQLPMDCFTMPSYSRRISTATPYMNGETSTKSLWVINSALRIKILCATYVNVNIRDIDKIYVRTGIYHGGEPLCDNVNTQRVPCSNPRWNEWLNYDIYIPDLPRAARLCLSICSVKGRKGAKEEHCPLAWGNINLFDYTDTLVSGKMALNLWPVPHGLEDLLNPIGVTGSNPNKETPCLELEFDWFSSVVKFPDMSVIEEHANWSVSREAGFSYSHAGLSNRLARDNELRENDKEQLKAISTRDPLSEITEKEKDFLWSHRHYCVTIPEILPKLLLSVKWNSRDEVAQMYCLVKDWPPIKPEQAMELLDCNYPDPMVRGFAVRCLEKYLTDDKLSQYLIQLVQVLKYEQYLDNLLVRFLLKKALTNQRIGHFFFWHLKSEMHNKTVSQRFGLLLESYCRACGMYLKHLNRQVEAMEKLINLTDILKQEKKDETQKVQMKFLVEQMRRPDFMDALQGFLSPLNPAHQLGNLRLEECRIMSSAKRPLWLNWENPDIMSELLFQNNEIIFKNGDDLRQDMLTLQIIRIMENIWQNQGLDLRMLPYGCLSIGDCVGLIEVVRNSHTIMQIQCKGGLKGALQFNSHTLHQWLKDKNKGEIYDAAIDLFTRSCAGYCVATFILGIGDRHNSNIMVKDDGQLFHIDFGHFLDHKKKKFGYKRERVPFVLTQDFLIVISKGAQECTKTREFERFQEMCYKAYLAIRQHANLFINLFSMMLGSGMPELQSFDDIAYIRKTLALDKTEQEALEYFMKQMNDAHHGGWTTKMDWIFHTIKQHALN
Sequence of Serine/threonine-protein kinase Nek7 (Homo sapiens) (Q8TDX7 whole entry, looked up, canonical isoform): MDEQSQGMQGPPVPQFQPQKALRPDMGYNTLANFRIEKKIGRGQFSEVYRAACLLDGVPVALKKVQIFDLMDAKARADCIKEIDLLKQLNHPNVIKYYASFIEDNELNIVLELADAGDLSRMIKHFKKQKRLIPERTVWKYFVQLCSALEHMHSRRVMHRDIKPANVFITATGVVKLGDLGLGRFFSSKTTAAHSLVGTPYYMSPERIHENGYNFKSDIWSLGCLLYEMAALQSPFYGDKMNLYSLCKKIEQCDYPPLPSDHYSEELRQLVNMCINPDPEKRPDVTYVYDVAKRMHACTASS

CN(C)C(=O)Cn1cc(-c2nc(C3(c4ccc(-c5cnc(N)nc5)cc4)CC3)no2)cn1 [BI 0153]
inactive: residual activity [1] 100% | residual activity [2] 99% | residual activity [3] 93% | residual activity [4] 89% | residual activity [5] 70% | residual activity [6] 100% | residual activity [7] 100% | residual activity [8] 100% | residual activity [9] 100% | residual activity [10] 81% | residual activity [11] 100% | residual activity [12] 100% | residual activity [13] 100% | residual activity [14] 96% | residual activity [15] 86% | inhibition [16] 1.18%

CN(C)C(=O)Cn1cc(-c2nc([C@@](C)(c3ccc(-c4cnc(N)nc4)cc3)C3CC3)no2)cn1 [BI 665915]
inactive: residual activity [1] 80% | residual activity [2] 100% | residual activity [3] 100% | residual activity [4] 99% | residual activity [5] 87% | residual activity [6] 100% | residual activity [7] 85% | residual activity [8] 100% | residual activity [9] 89% | residual activity [10] 86% | residual activity [11] 100% | residual activity [12] 90% | residual activity [13] 95% | residual activity [14] 100% | residual activity [15] 100% | inhibition [16] 1.48%

From ChEMBL document CHEMBL4507276 (2021)
